In series [1] the target is T1, FAK FAT domain (Homo sapiens, UniProt Q05397).
T1 sequence (Q05397 914-1045 limits assumed): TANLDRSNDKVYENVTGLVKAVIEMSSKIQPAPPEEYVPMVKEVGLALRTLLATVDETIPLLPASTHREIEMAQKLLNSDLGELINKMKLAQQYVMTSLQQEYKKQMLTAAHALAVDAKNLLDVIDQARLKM
Briefly: SPR binding to immobilized biotinylated FAK FAT. As to the method:
SPR binding studies were performed using biotinylated FAK FAT protein[51]. Briefly, SPR binding assays were performed on a ForteBio Pioneer FE SPR system using SPR running buffer (100 mM Tris-Cl pH 8.0, 200 mM NaCl, and 0.05% Tween-20). […] Desired immobilization levels were determined utilizing the following Eq. 1:1 Rmax=RproteinxMranalyte/MrproteinxVprotein where Rmax is the highest possible response of binding between the analyte and the protein, Rprotein is the change in response by the immobilization of the protein, Mr represents the mass of the analyte or protein, and Vprotein represents the number of binding sites on the protein. A target Rmax of approximately 100 RU was chosen.
All samples were diluted in the SPR buffer to a volume of 200 µl and injected using the OneStep gradient injection system at a flow rate of 150 µl/min. For a bulk standard control, a 3% (w\v) solution of sucrose in SPR buffer was used for injection. […] SPR data analysis utilized Qdat software (ForteBio, version 4.3.2 build 8) for normalization of the baseline prior to injection, channel alignment, and reference channel and blank subtraction.

The target in series [2] is T2, FAK FAT / TAMRA-paxillin LD2 L10D (Homo sapiens, UniProt Q05397).
T2 construct: assay was performed using FAK FAT protein and TAMRA-LD2 L10D peptide
T2 sequence (Q05397 919-1052): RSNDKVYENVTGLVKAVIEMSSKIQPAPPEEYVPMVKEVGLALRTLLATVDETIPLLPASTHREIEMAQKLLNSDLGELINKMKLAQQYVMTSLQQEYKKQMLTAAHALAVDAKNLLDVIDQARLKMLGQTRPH
Briefly: Fluorescence polarization competition (FAK-paxillin) assay. It counts as binding. On the procedure: The IC50 was calculated using a four-parameter dose-response inhibition model, with the bottom fit constrained to the lower plateau of the binding curve.

Series [3] can be described thus: Plasma stability. The conditions noted are these: mouse plasma.
Series [4] relates to trypsin. Briefly: Trypsin proteolytic resistance assay. The conditions noted are these: immobilized trypsin-agarose resin.
Method: Cell permeability of peptide drugs was determined by fluorescence measurement of TAMRA-labeled peptides in 96-well plates and ClarioStar Plus plate reader using BMG ClarioStar MARS software (version 4.20). […] Percent uptake was calculated as background-subtracted fluorescence absorbed by cells/fluorescence of peptide in media-only wells, then made relative to TAMRA-Alkyne. Three biological replicates (n = 3) were performed per cell line per treatment group. Peptide proteolysis was measured using immobilized Trypsin-agarose resin (Thermo Fisher) and quantification by LC-MS. […] In vivo pharmacokinetics were performed by the UACC Analytical Chemistry Shared Resource. […] The mice were fed NIH-31 irradiated pellets (Tekland Premier, Madison, Wisconsin), and reverse osmosis water was freely available. […] The average plasma concentration versus time data were analyzed using PKSolver (version 2.0) by a noncompartmental approach.
[5] abbreviates: one-site kinetic fit, mean ± SD of n = 2-5 biological replicates, Tris pH 8.0, read-out: SPR KD.

SMILES strings stand for the structures. Read-outs that look alike come from different tables or passages of the source. Bridge positions count the residues as written; N and C are the ends. Square brackets hold non-standard residues; d marks the D form. Peptide text beside a SMILES is read from it. R8 = C=CCCCCCC[C@@](C)(N)C(=O)O; R5 = C=CCCC[C@@](C)(N)C(=O)O; S5 = C=CCCC[C@](C)(N)C(=O)O

For `CC(=O)N[C@@H](CO)C(=O)N[C@@H](CC(C)C)C(=O)NCC(=O)N[C@@H](CO)C(=O)N[C@@H](CC(N)=O)C(=O)N[C@@H](CC(C)C)C(=O)N[C@]1(C)CCCCCCC=CCCC[C@@](C)(C(=O)N[C@@H](CCC(=O)O)C(=O)N[C@@H](CC(C)C)C(=O)N[C@@H](CC(N)=O)C(=O)N[C@@H](C)C(=O)N[C@H](C(=O)N[C@@H](CCC(N)=O)C(=O)N[C@@H](Cc2c[nH]cn2)C(N)=O)C(C)C)NC(=O)[C@H](CC(C)C)NC(=O)[C@H](CC(C)C)NC(=O)[C@H](CCCNC(=N)N)NC(=O)[C@H](CC(=O)O)NC(=O)[C@H](CC(C)C)NC(=O)[C@H](CCC(=O)O)NC1=O` [compound 1920] (Ac-SLGSNL[R8]ELDRLL[S5]ELNAVQH-NH2; staple 7-14), the Kd in series [1] (two-site model, site 1, mean ± SD, read-out: SPR KD1) was determined as 0.9 ± 0.5 µM; in series [1] (two-site model, site 2, mean ± SD, read-out: SPR KD2) it was 9.8 ± 6.9 µM.

Take `CC(=O)N[C@@H](CC(N)=O)C(=O)N[C@@H](CC(C)C)C(=O)N[C@@H](CO)C(=O)N[C@@H](CCC(=O)O)C(=O)N[C@@H](CC(C)C)C(=O)N[C@@H](CC(=O)O)C(=O)N[C@@H](CCCNC(=N)N)C(=O)N[C@@]1(C)CCCC=CCCC[C@@](C)(C(=O)N[C@@H](CC(N)=O)C(N)=O)NC(=O)[C@H](CCC(=O)O)NC(=O)[C@H](CC(C)C)NC(=O)[C@H](CC(C)C)NC1=O` [compound 2015] (Ac-NLSELDR[S5]LLE[S5]N-NH2; staple 8-12): in series [1], the Kd was found to be 30.6 µM.

In the case of `CC(=O)N[C@]1(C)CCCCCCC=CCCC[C@@](C)(C(N)=O)NC(=O)[C@H](CC(C)C)NC(=O)[C@H](CC(C)C)NC(=O)[C@H](CCCNC(=N)N)NC(=O)[C@H](CC(=O)O)NC(=O)[C@H](CC(C)C)NC(=O)[C@H](CCC(=O)O)NC1=O` [compound 2011] (Ac-[R8]ELDRLL[S5]-NH2; staple 1-8), the Kd was above 200 µM in series [1] (Rep1, read-out: SPR (KD)); above 200 µM in series [1] (Rep2, read-out: SPR (KD)); above 200 µM in series [1] (Rep3, read-out: SPR (KD)); above 200 µM in series [1] (read-out: SPR KD, pH 8). For the same compound, the Ki is above 333 µM in series [2] and above 333 µM in series [2] (Rep2, read-out: FP (Ki) data).

Take `CC(=O)N[C@@H](CC(N)=O)C(=O)N[C@@H](CC(C)C)C(=O)N[C@]1(C)CCCCCCC=CCCC[C@@](C)(C(=O)N[C@@H](CCC(=O)O)C(=O)N[C@@H](CC(C)C)C(=O)N[C@@H](CC(N)=O)C(N)=O)NC(=O)[C@H](CC(C)C)NC(=O)[C@H](CC(C)C)NC(=O)[C@H](CCCNC(=N)N)NC(=O)[C@H](CC(=O)O)NC(=O)[C@H](CC(C)C)NC(=O)[C@H](C)NC1=O` [compound 2009]: in series [1] (setting [5]), the Kd was found to be 3.4 µM.

On to `CC(=O)N[C@@H](CC(N)=O)C(=O)N[C@@H](CC(C)C)C(=O)N[C@]1(C)CCCCCCC=CCCC[C@@](C)(C(=O)N[C@@H](CCC(N)=O)C(=O)N[C@@H](CC(C)C)C(=O)N[C@@H](CC(N)=O)C(N)=O)NC(=O)[C@H](CC(C)C)NC(=O)[C@H](CC(C)C)NC(=O)[C@H](CCCNC(=N)N)NC(=O)[C@H](CC(=O)O)NC(=O)[C@H](CC(C)C)NC(=O)[C@H](CCC(N)=O)NC1=O` [compound 1910] (Ac-NL[R8]QLDRLL[S5]QLN-NH2; staple 3-10), for which the Kd in series [1] (setting [5]) is 22.6 µM.

Turning to `CC(=O)N[C@@H](CC(N)=O)C(=O)N[C@@H](CC(C)C)C(=O)N[C@@H](CO)C(=O)N[C@@H](CCC(=O)O)C(=O)N[C@@]1(C)CCCC=CCCC[C@@](C)(C(=O)N[C@@H](CC(C)C)C(=O)N[C@@H](CCC(=O)O)C(=O)N[C@@H](CC(C)C)C(=O)N[C@@H](CC(N)=O)C(N)=O)NC(=O)[C@H](CC(C)C)NC(=O)[C@H](CCCNC(=N)N)NC(=O)[C@H](CC(=O)O)NC1=O` [compound 1919] (Ac-NLSE[S5]DRL[S5]LELN-NH2; staple 5-9), the Kd in series [1] (setting [5]) stood at 80.6 µM.

Consider `CC(=O)N[C@@H](CC(N)=O)C(=O)N[C@@H](CC(C)C)C(=O)N[C@@H](CO)C(=O)N[C@@H](CCC(=O)O)C(=O)N[C@]1(C)CCCCCCC=CCCC[C@@](C)(C(=O)N[C@@H](CC(N)=O)C(N)=O)NC(=O)[C@H](CCC(=O)O)NC(=O)[C@H](CC(C)C)NC(=O)[C@H](CC(C)C)NC(=O)[C@H](CC(C)C)NC(=O)[C@H](CCCNC(=N)N)NC(=O)[C@H](CC(=O)O)NC1=O` [compound 1914] (Ac-NLSE[R8]DRLLLE[S5]N-NH2; staple 5-12), for which the Kd in series [1] (setting [5]) was determined as 120 µM. Also, the Ki in series [2] (Rep1, read-out: FP (Ki) data) is above 1250 µM; in series [2] (Rep2, read-out: FP (Ki) data), above 1250 µM; in series [2] (Rep3, read-out: FP (Ki) data), above 1250 µM.

`CC(C)[N+](C)(CCOC(=O)C1c2ccccc2Oc2ccccc21)C(C)C` [propantheline bromide]: the “% remaining in plasma” value was 105% in series [3] (0 min, Rep1); 100% in series [3] (0 min, Rep2); 95% in series [3] (0 min, Rep3); 85% in series [3] (15 min, Rep1); 78% in series [3] (15 min, Rep2); 86% in series [3] (15 min, Rep3). The “% remaining in plasma” value in series [3] (30 min, Rep1) amounted to 73%; in series [3] (30 min, Rep2) it was 70%; in series [3] (30 min, Rep3) it was 68%; in series [3] (60 min, Rep1), 58%; in series [3] (60 min, Rep2), 52%; in series [3] (60 min, Rep3), 50%. In addition, the “% remaining in plasma” value turned out to be 30% in series [3] (90 min, Rep1); 42% in series [3] (90 min, Rep2); 36% in series [3] (90 min, Rep3); 29% in series [3] (120 min, Rep1); 31% in series [3] (120 min, Rep2); 27% in series [3] (120 min, Rep3). Besides, the “plasma stability t1/2” value in series [3] (n = 3) was found to be 1.1 h.

For the compound `CC(=O)N[C@@H](CC(N)=O)C(=O)N[C@]1(C)CCCCCCC=CCCC[C@@](C)(C(=O)N[C@@H](CC(C)C)C(=O)N[C@@H](CCC(=O)O)C(=O)N[C@@H](CC(C)C)C(=O)N[C@@H](CC(N)=O)C(N)=O)NC(=O)[C@H](CC(C)C)NC(=O)[C@H](CCCNC(=N)N)NC(=O)[C@H](CC(=O)O)NC(=O)[C@H](CC(C)C)NC(=O)[C@H](CCC(=O)O)NC(=O)[C@H](CO)NC1=O` [compound 2017] (Ac-N[R8]SELDRL[S5]LELN-NH2; staple 2-9), the Kd in series [1] (setting [5]) came to 27.9 µM.

Turning to `CC(=O)N[C@@H](CC(N)=O)C(=O)N[C@@H](CC(C)C)C(=O)N[C@]1(C)CCCCCCC=CCCC[C@@](C)(C(=O)N[C@@H](CCC(=O)O)C(=O)N[C@@H](CC(C)C)C(=O)N[C@@H](CC(N)=O)C(N)=O)NC(=O)[C@H](Cc2c[nH]c3ccccc23)NC(=O)[C@H](CC(C)C)NC(=O)[C@H](CCCNC(=N)N)NC(=O)[C@H](CC(=O)O)NC(=O)[C@H](CC(C)C)NC(=O)[C@H](CCC(=O)O)NC1=O` [compound 2007], the Kd in series [1] (setting [5]) was 60.6 µM.

`CC(=O)N[C@@H](CC(N)=O)C(=O)N[C@@H](CC(C)C)C(=O)N[C@]1(C)CCCCCCC=CCCC[C@@](C)(C(=O)N[C@@H](CCC(=O)O)C(=O)N[C@@H](CC(C)C)C(=O)N[C@@H](CC(N)=O)C(N)=O)NC(=O)[C@H](CC(C)C)NC(=O)[C@H](CC(C)C)NC(=O)[C@H](CCCNC(=N)N)NC(=O)[C@H](CC(=O)O)NC(=O)[C@H](CC(C)C)NC(=O)[C@H](CCC(=O)O)NC1=O` [compound 1907]: in series [4], the half-life at 100 µM was 28.4 h; the fraction remaining at 0.25 h, 100 µM turned out to be 80%; the fraction remaining at 0.5 h, 100 µM was determined as 73%; the amount remaining at 1 h, 100 µM was 72%. Further, in series [4], the share remaining at 2 h, 100 µM came to 73%; the amount remaining at 3 h, 100 µM was 62%; the amount remaining at 4 h, 100 µM turned out to be 58%; the share remaining at 8 h, 100 µM is 56%. In series [4], this compound had an amount remaining at 24 h, 100 µM of 43% and a fraction remaining at 48 h, 100 µM of 31%.

For the compound `CC(=O)N[C@@H](CC(N)=O)C(=O)N[C@@H](CC(C)C)C(=O)N[C@@H](CO)C(=O)N[C@@H](CCC(=O)O)C(=O)N[C@@H](CC(C)C)C(=O)N[C@@H](CC(=O)O)C(=O)N[C@@H](CCCNC(=N)N)C(=O)N[C@@H](CC(C)C)C(=O)N[C@]1(C)CCCC=CCCC[C@@](C)(C(=O)N[C@@H](CC(N)=O)C(N)=O)NC(=O)[C@H](CCC(=O)O)NC(=O)[C@H](CC(C)C)NC1=O` [compound 1921] (Ac-NLSELDRL[R5]LE[S5]N-NH2; staple 9-12), the Kd is above 200 µM in series [1] (Rep1, read-out: SPR (KD)); above 200 µM in series [1] (Rep2, read-out: SPR (KD)); above 200 µM in series [1] (Rep3, read-out: SPR (KD)); above 200 µM in series [1] (setting [5]).
